From patent US5328902A, “7-(substituted)-9-[(substituted glycyl)amido]-6-demethyl-6-deoxytetracyclines” (American Cyanamid Co., priority 1992, dated 1994)
Converted amounts (≈) assume the structure as drawn.

Experiments:
Assay type in all cases: cell-based
E. coli BAJ9003 IMP MUT = experiment: microbe, parasite or virus in culture; settings: E. coli BAJ9003 IMP MUT
S. aureus NEMC 8769 = experiment: MIC, agar dilution; settings: S. aureus NEMC 8769
[1] = system: E. coli MC 4100 Tet sens.; experiment: MIC, agar dilution
E. coli UBMS 90-5 = experiment: MIC, agar dilution
[2] = system: S. aureus UBMS 90-1 Tet M; experiment: microbe, parasite or virus in culture; settings: S. aureus UBMS 90-1 Tet M
[3] = system: X. maltophilia NEMC 87210; experiment: MIC, agar dilution
E. coli PRP1 Tet A = experiment: microbe, parasite or virus in culture; settings: E. coli PRP1 Tet A
[4] = system: S. aureus UBMS 88-7 Tet K; experiment: microbe, parasite or virus in culture; settings: S. aureus UBMS 88-7 Tet K
S. aureus IVES 2943 = experiment: MIC, agar dilution; settings: S. aureus IVES 2943
[5] = system: S. aureus UBMS 90-2 Tet M; experiment: microbe, parasite or virus in culture; settings: S. aureus UBMS 90-2 Tet M
Enterococcus 12201 = experiment: MIC, agar dilution; settings: Enterococcus 12201
S. aureus ROSE (MP) = experiment: MIC, agar dilution; settings: S. aureus ROSE (MP)
[6] = system: S. hemolyticus AVHAH 88-3; experiment: MIC, agar dilution; settings: S. hemolyticus AVHAH 88-3
E. coli J3272 Tet D = experiment: microbe, parasite or virus in culture; settings: E. coli J3272 Tet D
E. coli J3272 Tet C = experiment: microbe, parasite or virus in culture; settings: E. coli J3272 Tet C
E. coli UBMS 89-1 Tet M = experiment: microbe, parasite or virus in culture; settings: E. coli UBMS 89-1 Tet M
E. faecalis ATCC 29212 = experiment: MIC, agar dilution; settings: E. faecalis ATCC 29212
E. coli J2175 = experiment: MIC, agar dilution; settings: E. coli J2175
S. mariescens FPOR 8733 = experiment: MIC, agar dilution
[7] = system: Ps. acruginosa ATCC 27853; experiment: MIC, agar dilution; settings: Ps. acruginosa ATCC 27853
E. coli UBMS 88-1 Tet B = experiment: microbe, parasite or virus in culture; settings: E. coli UBMS 88-1 Tet B; 18 hours at 35° C.
[8] = system: E. coli MC 4100 TNIOC Tet B; experiment: microbe, parasite or virus in culture; settings: E. coli MC 4100 TNIOC Tet B
[9] = system: S. aureus UBMS 88-5 Tet M; experiment: microbe, parasite or virus in culture; settings: S. aureus UBMS 88-5 Tet M
[10] = system: E. coli UBMS 89-2 Tet sens.; experiment: MIC, agar dilution; settings: E. coli UBMS 89-2 Tet sens.
S. aureus UBMS 90-3 = experiment: MIC, agar dilution; settings: S. aureus UBMS 90-3
E. coli UBMS 90-4 Tet M = experiment: microbe, parasite or virus in culture; settings: E. coli UBMS 90-4 Tet M
S. aureus SMITH (MP) = experiment: MIC, agar dilution; settings: S. aureus SMITH (MP)
E. coli #311 (MP) = experiment: MIC, agar dilution; settings: E. coli #311 (MP)
E. coli ATCC 25922 = experiment: MIC, agar dilution; settings: E. coli ATCC 25922
S. aureus UBMS 88-4 = experiment: MIC, agar dilution; settings: S. aureus UBMS 88-4
S. aureus ATCC 29213 = experiment: MIC, agar dilution; settings: S. aureus ATCC 29213
S. aureus IVES 1 983 = experiment: MIC, agar dilution; settings: S. aureus IVES 1 983

| Compound | MIC (E. coli BAJ9003 IMP MUT) [µg/mL] | MIC (S. aureus NEMC 8769) [µg/mL] | MIC [1] [µg/mL] | MIC (E. coli UBMS 90-5) [µg/mL] | MIC [2] [µg/mL] | MIC [3] [µg/mL] | MIC (E. coli PRP1 Tet A) [µg/mL] | MIC [4] [µg/mL] | MIC (S. aureus IVES 2943) [µg/mL] | MIC [5] [µg/mL] | MIC (Enterococcus 12201) [µg/mL] | MIC (S. aureus ROSE (MP)) [µg/mL] | MIC [6] [µg/mL] | MIC (E. coli J3272 Tet D) [µg/mL] | MIC (E. coli J3272 Tet C) [µg/mL] | MIC (E. coli UBMS 89-1 Tet M) [µg/mL] | MIC (E. faecalis ATCC 29212) [µg/mL] | MIC (E. coli J2175) [µg/mL] | MIC (S. mariescens FPOR 8733) [µg/mL] | MIC [7] [µg/mL] | other results |
| --- | --- | --- | --- | --- | --- | --- | --- | --- | --- | --- | --- | --- | --- | --- | --- | --- | --- | --- | --- | --- | --- |
| CN(CCO)CC(=O)Nc1cc(N(C)C)c2c(c1O)C(=O)C1=C(O)[C@]3(O)C(=O)C(C(N)=O)=C(O)[C@@H](N(C)C)C3CC1C2 (stereo partly shown) [Q] | 2 (≈ 3.4 µM) | 8 (≈ 13.6 µM) | 4 (≈ 6.81 µM) | 32 (≈ 54.5 µM) | 32 (≈ 54.5 µM) | 8 (≈ 13.6 µM) | > 32 | 32 (≈ 54.5 µM) | > 32 | 16 (≈ 27.2 µM) | 4 (≈ 6.81 µM) | > 32 | 16 (≈ 27.2 µM) | 32 (≈ 54.5 µM) | > 32 | 32 (≈ 54.5 µM) | 4 (≈ 6.81 µM) | 32 (≈ 54.5 µM) | 16 (≈ 27.2 µM) | > 32 | MIC (E. coli UBMS 88-1 Tet B): 32 µg/mL (≈ 54.5 µM); MIC [8]: > 32 µg/mL; MIC [9]: 16 µg/mL (≈ 27.2 µM); MIC [10]: 32 µg/mL (≈ 54.5 µM); MIC (S. aureus UBMS 90-3): 8 µg/mL (≈ 13.6 µM); MIC (E. coli UBMS 90-4 Tet M): 16 µg/mL (≈ 27.2 µM); MIC (S. aureus SMITH (MP)): 8 µg/mL (≈ 13.6 µM); MIC (E. coli #311 (MP)): 32 µg/mL (≈ 54.5 µM); MIC (E. coli ATCC 25922): 32 µg/mL (≈ 54.5 µM); MIC (S. aureus UBMS 88-4): 8 µg/mL (≈ 13.6 µM); MIC (S. aureus ATCC 29213): 16 µg/mL (≈ 27.2 µM); MIC (S. aureus IVES 1 983): > 32 µg/mL |
| CN(C)c1cc(NC(=O)CNOCc2ccccc2)c(O)c2c1C[C@H]1C[C@H]3[C@H](N(C)C)C(O)=C(C(N)=O)C(=O)[C@@]3(O)C(O)=C1C2=O [X, [4S-(4-alpha,12aalpha)]-4,7-Bis(dimethylamino)-1,4,4a,5,5a,6,11,12a-octahydro-3,10, 12,12a-tetrahydroxy-1,11-dioxo-9-[[[(phenylmethoxy)amino]acetyl]amino]-2-naphthacenecarboxamide] | 1 (≈ 1.57 µM) | 1 (≈ 1.57 µM) | 4 (≈ 6.29 µM) | > 32 | 2 (≈ 3.15 µM) | 16 (≈ 25.2 µM) | > 32 | 4 (≈ 6.29 µM) | 8 (≈ 12.6 µM) | 2 (≈ 3.15 µM) | 4 (≈ 6.29 µM) | 16 (≈ 25.2 µM) | 4 (≈ 6.29 µM) | 16 (≈ 25.2 µM) | > 32 | 16 (≈ 25.2 µM) | 1 (≈ 1.57 µM) | > 32 | > 32 | > 32 | MIC (E. coli UBMS 88-1 Tet B): > 32 µg/mL; MIC [8]: > 32 µg/mL; MIC [9]: 2 µg/mL (≈ 3.15 µM); MIC [10]: > 32 µg/mL; MIC (S. aureus UBMS 90-3): 1 µg/mL (≈ 1.57 µM); MIC (E. coli UBMS 90-4 Tet M): > 32 µg/mL; MIC (S. aureus SMITH (MP)): 0.5 µg/mL (≈ 0.787 µM); MIC (E. coli #311 (MP)): 16 µg/mL (≈ 25.2 µM); MIC (E. coli ATCC 25922): 16 µg/mL (≈ 25.2 µM); MIC (S. aureus UBMS 88-4): 1 µg/mL (≈ 1.57 µM); MIC (S. aureus ATCC 29213): 1 µg/mL (≈ 1.57 µM); MIC (S. aureus IVES 1 983): 8 µg/mL (≈ 12.6 µM) |
| C#CCN(C)CC(=O)Nc1cc(N(C)C)c2c(c1O)C(=O)C1=C(O)[C@]3(O)C(=O)C(C(N)=O)=C(O)[C@@H](N(C)C)[C@@H]3C[C@@H]1C2 [V, [4S-(4alpha,12aalpha)]-4,7-Bis(dimethylamino)-1,4,4a,5,5a,6,11,12a-octahydro-3,10, 12,12a-tetrahydroxy-9-[[[methyl-2-propynylamino]acetyl]amino]-1,11-dioxo-2-naphthacenecarboxamide] | 4 (≈ 6.88 µM) | 4 (≈ 6.88 µM) | 32 (≈ 55 µM) | > 32 | 16 (≈ 27.5 µM) | 32 (≈ 55 µM) | > 32 | 32 (≈ 55 µM) | > 32 | 8 (≈ 13.8 µM) | 8 (≈ 13.8 µM) | > 32 | 32 (≈ 55 µM) | > 32 | > 32 | > 32 | 4 (≈ 6.88 µM) | > 32 | > 32 | > 32 | MIC (E. coli UBMS 88-1 Tet B): > 32 µg/mL; MIC [8]: > 32 µg/mL; MIC [9]: 8 µg/mL (≈ 13.8 µM); MIC [10]: > 32 µg/mL; MIC (S. aureus UBMS 90-3): 4 µg/mL (≈ 6.88 µM); MIC (E. coli UBMS 90-4 Tet M): > 32 µg/mL; MIC (S. aureus SMITH (MP)): 4 µg/mL (≈ 6.88 µM); MIC (E. coli #311 (MP)): > 32 µg/mL; MIC (E. coli ATCC 25922): > 32 µg/mL; MIC (S. aureus UBMS 88-4): 4 µg/mL (≈ 6.88 µM); MIC (S. aureus ATCC 29213): 4 µg/mL (≈ 6.88 µM); MIC (S. aureus IVES 1 983): > 32 µg/mL |
| CN(C)c1cc(NC(=O)CNN2CCCCC2)c(O)c2c1CC1CC3C(N(C)C)C(O)=C(C(N)=O)C(=O)C3(O)C(O)=C1C2=O (stereo not drawn) [W, [4S-(4alpha,12aalpha)]-4,7-Bis(dimethylamino)-1,4,4a,5,5a,6,11,12a-octahydro-3,10, 12,12a-tetrahydroxy-hydroxy-1,11-dioxo-9[[(1-piperidinylamino)acetyl]amino]-2naphthacenecarboxamide] | 16 (≈ 26.1 µM) | > 32 | 32 (≈ 52.2 µM) | > 32 | > 32 | > 32 | > 32 | > 32 | > 32 | > 32 | > 32 | > 32 | > 32 | > 32 | > 32 | > 32 | > 32 | > 32 | > 32 | > 32 | MIC (E. coli UBMS 88-1 Tet B): > 32 µg/mL; MIC [8]: > 32 µg/mL; MIC [9]: > 32 µg/mL; MIC [10]: > 32 µg/mL; MIC (S. aureus UBMS 90-3): 16 µg/mL (≈ 26.1 µM); MIC (E. coli UBMS 90-4 Tet M): > 32 µg/mL; MIC (S. aureus SMITH (MP)): 16 µg/mL (≈ 26.1 µM); MIC (E. coli #311 (MP)): > 32 µg/mL; MIC (E. coli ATCC 25922): > 32 µg/mL; MIC (S. aureus UBMS 88-4): > 32 µg/mL; MIC (S. aureus ATCC 29213): 32 µg/mL (≈ 52.2 µM); MIC (S. aureus IVES 1 983): > 32 µg/mL |
| CN(C)c1cc(NC(=O)CNCCO)c(O)c2c1CC1CC3C(N(C)C)C(O)=C(C(N)=O)C(=O)C3(O)C(O)=C1C2=O.Cl (stereo not drawn) [P, [4S-(4alpha,12aalpha)]-4,7-Bis(dimethylamino)-1.4,4a,5,5a,6,11,12a-octahydro-3,10, 12,12a-tetrahydroxy-9-[[[(2-hydroxyethyl)amino]acetyl]amino]-1,11-dioxo-2-naphthacenecarboxamide monohydrochloride] | 2 | 4 | 4 | 32 | 32 | > 32 | > 32 | 32 | > 32 | 16 | 8 | > 32 | 32 | 16 | > 32 | > 32 | 4 | 32 | > 32 | > 32 | MIC (E. coli UBMS 88-1 Tet B): > 32 µg/mL; MIC [8]: > 32 µg/mL; MIC [9]: 32 µg/mL; MIC [10]: > 32 µg/mL; MIC (S. aureus UBMS 90-3): 8 µg/mL; MIC (E. coli UBMS 90-4 Tet M): 32 µg/mL; MIC (S. aureus SMITH (MP)): 4 µg/mL; MIC (E. coli #311 (MP)): 16 µg/mL; MIC (E. coli ATCC 25922): 16 µg/mL; MIC (S. aureus UBMS 88-4): 8 µg/mL; MIC (S. aureus ATCC 29213): 8 µg/mL; MIC (S. aureus IVES 1 983): > 32 µg/mL |
